Measured values taken from ChEMBL document CHEMBL4619766, “Eudesmacarbonate, a Eudesmane-Type Sesquiterpene from a Marine Filamentous Cyanobacterial Mat (Oscillatoriales) in the Florida Keys” (J Nat Prod, 2020).

Tests used:
[1] = Neurotoxicity in 4 to 5 hpf stage wild type zebrafish AB embryo assessed as reduction in spontaneous coiling frequency at 4.5 to 22 nM under 14 hrs light and 10 hrs dark condition and measured at 24 hpf stage by microscopic analysis; format: toxicity, Danio rerio; details: in vivo, 0.022 µM
[2] = Toxicity in 4 to 5 hpf stage wild type zebrafish AB embryo assessed as induction of bradycardia at 4.5 to 22 nM under 14 hrs light and 10 hrs dark condition and measured at 3 dpf stage by microscopic analysis; set-up: species or system Danio rerio; details: in vivo, 0.022 µM
[3] = Neurotoxicity in 4 to 5 hpf stage wild type zebrafish AB embryo assessed as induction of motor incoordination at 4.5 to 22 nM under 14 hrs light and 10 hrs dark condition and measured at 5 dpf stage by microscopic analysis; format: toxicity, Danio rerio; details: in vivo, 0.022 µM
[4] = Neurotoxicity in 4 to 5 hpf stage wild type zebrafish AB embryo assessed as irregular inflated swim bladder at 4.5 to 22 nM under 14 hrs light and 10 hrs dark condition and measured at 5 dpf stage by microscopic analysis; format: toxicity, Danio rerio; details: in vivo, 0.022 µM
[5] = Neurotoxicity in 4 to 5 hpf stage wild type zebrafish AB embryo assessed as effect on spasms at 4.5 to 22 nM under 14 hrs light and 10 hrs dark condition and measured at 5 dpf stage by microscopic analysis; format: toxicity, Danio rerio; details: in vivo, 0.022 µM
[6] = Neurotoxicity in 4 to 5 hpf stage wild type zebrafish AB embryo assessed as induction of head butting at 4.5 to 22 nM under 14 hrs light and 10 hrs dark condition and measured at 5 dpf stage by microscopic analysis; format: toxicity, Danio rerio; details: in vivo, 0.022 µM
[7] = Neurotoxicity in 4 to 5 hpf stage wild type zebrafish AB embryo assessed as induction of head butting at 9.4 to 94 uM under 14 hrs light and 10 hrs dark condition and measured at 5 dpf stage by microscopic analysis; format: toxicity, Danio rerio; details: in vivo
[8] = Toxicity in 4 to 5 hpf stage wild type zebrafish AB embryo assessed as effect on heart rate at 9.4 to 94 uM under 14 hrs light and 10 hrs dark condition and measured at 3 dpf stage by microscopic analysis; set-up: species or system Danio rerio; details: in vivo
[9] = Neurotoxicity in 4 to 5 hpf stage wild type zebrafish AB embryo assessed as irregular development of swim bladder dysfunction at 9.4 to 94 uM under 14 hrs light and 10 hrs dark condition and measured at 5 dpf stage by microscopic analysis; format: toxicity, Danio rerio; details: in vivo
[10] = Neurotoxicity in 4 to 5 hpf stage wild type zebrafish AB embryo assessed as induction of motor incoordination at 9.4 to 94 uM under 14 hrs light and 10 hrs dark condition and measured at 5 dpf stage by microscopic analysis; format: toxicity, Danio rerio; details: in vivo
[11] = Neurotoxicity in 4 to 5 hpf stage wild type zebrafish AB embryo assessed as irregular inflated swim bladder at 9.4 to 94 uM under 14 hrs light and 10 hrs dark condition and measured at 5 dpf stage by microscopic analysis; format: toxicity, Danio rerio; details: in vivo
[12] = Neurotoxicity in 7 dpf stage zebra fish PSA larvae assessed induction of larval immobilization at 110 to 190 uM measured within 45 mins; format: toxicity, Danio rerio; details: zebrafish, 0.75 h
[13] = Neurotoxicity in 7 dpf stage zebra fish PSA larvae assessed induction of larval immobilization at 38 uM measured over 90 mins; format: toxicity, Danio rerio; details: zebrafish, 1.5 h
[14] = Neurotoxicity in 4 to 5 hpf stage wild type zebrafish AB embryo assessed as effect on spasms at 9.4 to 94 uM under 14 hrs light and 10 hrs dark condition and measured at 5 dpf stage by microscopic analysis; format: toxicity, Danio rerio; details: in vivo
Danio rerio [15] = organism: Danio rerio; experiment: Induction of larval immobilization in 7 dpf stage zebra fish PSA assessed as immobilization recovery level at 110 uM incubated for 90 mins followed by medium replacement and measured within 10 mins relative to control; format: toxicity, organism-based; details: zebrafish, in vivo, 1.5 h
Danio rerio [16] = organism: Danio rerio; experiment: Induction of larval immobilization in 7 dpf stage zebra fish PSA assessed as immobilization recovery level at 190 uM incubated for 90 mins followed by medium replacement and measured within 10 mins relative to control; format: toxicity, organism-based; details: zebrafish, in vivo, 1.5 h
[17] = Neurotoxicity in 4 to 5 hpf stage wild type zebrafish AB embryo assessed as effect on spontaneous coiling frequency at >= 38 uM under 14 hrs light and 10 hrs dark condition and measured at 24 hpf stage by microscopic analysis; format: toxicity, Danio rerio; details: in vivo

## C=C(C=O)C[C@@H]1C[C@H](O)[C@]2(C)O[C@@H]3C[C@@H]4O[C@@H]5C[C@]6(C)O[C@]7(C)CC[C@@H]8O[C@@H]9C[C@]%10(C)O[C@@H]%11C(C)=CC(=O)O[C@H]%11C[C@H]%10O[C@H]9C[C@@H](C)[C@H]8O[C@H]7C[C@H]6O[C@@]5(C)C/C=C\[C@H]4O[C@H]3C[C@H]2O1 [BREVETOXIN B]
[1]
  Activity: Non-Toxic
[2]
  Activity: Toxic
[3]
  Activity: Toxic
[4]
  Activity: Toxic
[5]
  Activity: Toxic
[6]
  Activity: Toxic

## CC(C)[C@@H]1CC[C@]2(C)CCC[C@]3(C)OC(=O)O[C@H]1[C@@H]23
[7]
  Activity: Toxic
[8]
  Activity: Toxic
[9]
  Activity: Toxic
[10]
  Activity: Toxic
[11]
  Activity: Toxic
[12]
  Activity: Toxic
[13]
  Activity: Non-Toxic
[14]
  Activity: Toxic
Danio rerio [15]
  Activity: 87%
Danio rerio [16]
  Activity: 47%
[17]
  Activity: Toxic
